From patent US6818226B2, “Dermal penetration enhancers and drug delivery systems involving same” (ACRUX DDS Pty. Ltd., priority 1996, dated 2004)
Read-outs that look alike come from different tables or passages of the source. Marks after values point to notes of the source that are not given here. Values belong to the compound of their own block, whether it stands above or below them.

Legend:
[1] = Children's python, 24 h, 2 % v/v
[2] = test system: full-thickness guinea pig skin in vivo; experiment: Melanin content of guinea pig skin in vivo after topical hydroquinone solution (Example 4); conditions: for Enhancement ratio (enhancer/control): melanin content
Description: Melanin content was measured by reflectance absorbance from the treated and untreated skin according to the methods outlined in the PhD thesis of Anderson, J. R., titled The Development of Techniques for Measuring the Bioavailability of Topical Depigmenting Agents (School of Pharmaceutics, Victorian College of Pharmacy Ltd., Parkville, Victoria, Australia, Dec., 1985).

[3] = hairless, mouse, 2 % v/v
[4] = Flux of oestradiol, progesterone, norethisterone acetate, ibuprofen, flurbiprofen across shed snake skin, 5 microL/cm^2 (Example 11); type: in vitro ADME, Children's python; conditions: for Enhancement ratio: 24 h
Source text: (§1) Dermatol., 94; 235-240, 1990.
(§2) Degassing was repeated three times.
In order to further illustrate the present invention and the advantages thereof, the following specific examples are given, it being understood that same are intended only as illustrative and in nowise limitative. In the examples, the effectiveness of the dermal penetration enhancers are illustrated by measuring the skin penetration of physiologically active agents. Also, the skin penetration of the dermal penetration enhancers of this invention were compared with that of other penetration enhancers as well as formulations of bio-affecting agents with common adjuvants. The comparisons made generally consisted of measuring the relative penetration through shed snake skin of the various formulations. In the examples, the in vitro skin penetration studies were performed using the same in vitro diffusion cell apparatus as previously mentioned.
The two penetration enhancers given as examples are octyl dimethyl PABA and Azone. Both penetration enhancers were again at a concentration of 8% v/v within the formulations and control was without a penetration enhancer. A concentration of 2% w/v oestradiol was used in the formulation and detection wavelength was 212 nm and the mobile phase consisted of acetonitrile:water (40%:60%).

[5] = as above; type: in vitro ADME; conditions: Children's python
[6] = type: physicochemical
Source text: Japanese patent JP 61-268631 to Showa Denko KK discloses dermal penetration enhancers suitable for use with water-soluble drugs. The dermal penetration enhancers disclosed include 1-5 carbon fatty acid esters of para-aminobenzoic acid but their chemical structures are quite distinct from the compounds used in the present invention, and the physicochemical properties of the 1-5 carbon fatty acid esters of para-aminobenzoic acid are markedly different to those of the present invention. For example the octanol-water partition coefficients for all the 1-5 carbon fatty acid esters of para-aminobenzoic acid are at least 200 fold lower than those of the present invention. Also the preferred dermal penetration enhancer disclosed in JP 61-268631 is the 2 carbon fatty acid ester of para-aminobenzoic acid (or Benzocaine) which has an octanol-water partition coefficient which is more than 8000 fold lower than those of the present invention. Unlike those of the present invention, the preferred dermal penetration enhancer disclosed in JP 61-268631 has significant pharmacological properties in that it is a local anaesthetic, which has also been reported to cause irritant and allergic skin reactions. […]

[7] = Hydroquinone penetration across full-thickness guinea pig skin in vitro from gel, Franz cells (Example 4)
Source text: Adult guinea pigs of either sex (weight range 500 g-750 g) were used. The hair on the back flank and back was removed with the aid of depilatory wax (Arielle™) under halothane anaesthesia. Seven days later, after the stratum corneum had completely regenerated, the guinea pigs were killed and the skin removed and placed on a chilled slab. […] For in vivo experiments the guinea pigs were housed in individual cages and the topical hydroquinone formulations were applied to the hair-free areas. Each guinea pig received the test or control formulation on the corresponding contralateral site, thus allowing each animal to act as its own control.
Radiolabelled hydroquinone (C14, Amersham) was added to each of the topical formulations. At specified time intervals 200 microL of receptor solution was withdrawn with a micro-pipette and replaced with 200 microL of fresh normal saline. The 200 microL samples were added to 800 microL of water which in turn was added to 10 mL of scintillation cocktail consisting of Toluene™ 1L, PPO 5g, POPOP 0.1 g and Triton X™ 500 mL. The scintillation counting was performed on a Packard Tricarb 460C instrument. Disintegrations per minute were determined by an external standard procedure and calculated by the data system of the instrument.

[8] = Ibuprofen penetration across full-thickness hairless mouse skin in vitro (Example 5); conditions: control, no enhancer; 2% w/v ibuprofen in 70% aqueous ethanol
[9] = Diffusion of indomethacin (Indospray) across snake skin after pretreatment with Octyl dimethyl PABA (Example 2); type: in vitro ADME; conditions: Children's python, 24 h
Description: as §1, §2
10 microL of increasing concentrations of Octyl dimethyl PABA in absolute ethanol were applied 30 mins prior to the application of the indomethacin formulation. The control experiment involved application of 10 microL of absolute ethanol alone 30 mins prior to the application of the indomethacin formulation. Samples were assayed according to the method described previously.

[10] = type: in vitro ADME, Children's python
Source text: as §1, §2
The control formulation contained no penetration enhancer. The detection wavelength was 242 nm and the mobile phase consisted of acetonitrile:water (35%:65%).

[11] = Diffusion of ketoprofen across shed snake skin after pretreatment with enhancer (Example 1); conditions: control, no enhancer: 70% aqueous ethanol alone for 2 hours before 2% ketoprofen; 24 h
[12] = Diffusion of ketoprofen across snake skin, enhancer included in the formulation (Example 3); conditions: control, no enhancer; 2% w/v ketoprofen in 70% aqueous ethanol; 24 h
[13] = Ketoprofen flux from transdermal patch across snake skin (Example 9); type: in vitro ADME, Children's python; conditions: control transdermal patch without enhancer, over 24 h
Description: as §1, §2
The patches were prepared by dissolving 300 mg of ketoprofen, 400 mg of penetration enhancer, 300 mg of polyethylene glycol 400 and 800 mg of hydroxypropylcellulose in 20 mL of ethanol and stirring until viscous. This was then poured onto a clean glass plate and dried at 40 degrees Celsius for 1 h. The thickness of this film was approximately 1 mm. Circles of 0.8 cm^2 were then cut out of this matrix and stuck onto the middle of 2.0 cm^2 circles of OPSITE™ adhesive bandage. This patch was then stuck onto 2.0 cm^2 pieces of snake skin and placed in the diffusion cell. The ketoprofen content of each patch formulation was determined by HPLC in triplicate and found to be 6.99+/−0.30 mg/cm^2 and 6.76+/−0.24 mg/cm^2, for the control and octyl salicylate patches respectively (mean content+/−std error, […]).

[14] = Children's python, 24 h, 8 % v/v

SMILES: CCCCCCCCCCCCN1CCCCCC1=O [Azone, 1-dodecal-azacycloheptane-2-one]
Enhancement ratio [1]: 3.6 | Melanin content ([2]; HQ 2% w/v with enhancer 2% v/v, finite dose solution 5 microL/cm^2): 39.5 ± 9.6 μg/cm^2 | Enhancement ratio (enhancer/control) ([2]; HQ 2% w/v with enhancer 2% v/v versus HQ 2% w/v control): 0.93 | median amount of ibuprofen penetrated after 12 hours [3]: 1036* μg/cm^2 | median amount of ibuprofen penetrated after 24 hours [3]: 2684* μg/cm^2 | Mean flux +/− std error of oestradiol ([4]; Children's python, 8 % v/v): 0.40 +/− 0.05 microg/cm^2 · h | Enhancement ratio ([4]; Children's python, 8 % v/v): 5.4 | Mean flux +/− std error of flurbiprofen ([5]; 8 % v/v): 2.05 +/− 0.42 microg/cm^2 · h | Mean flux +/− std error of ibuprofen ([5]; 8 % v/v): 13.53 +/− 1.38 microg/cm^2 · h | Mean flux +/− std error of norethisterone acetate ([5]; 8 % v/v): 0.16 +/− 0.02 microg/cm^2 · h | Mean flux +/− std error of progesterone ([5]; 24 h, 8 % v/v): 2.17 +/− 0.33 microg/cm^2 · h

SMILES: C#C[C@]1(OC(C)=O)CC[C@H]2[C@@H]3CCC4=CC(=O)CC[C@@H]4[C@H]3CC[C@@]21C [Norethisterone acetate, norethisterone acetate]
Mean flux +/− std error of norethisterone acetate ([5]; 24 h, 6 % w/v): 0.14 +/− 0.02 microg/cm^2 · h

SMILES: CCCCC(CC)COC(=O)c1ccc(N(C)C)cc1 (stereo not drawn) [Octyl dimethyl PABA, Octyl dimethyl-para-aminobenzoate]
Enhancement ratio [1]: 3.5 | Melanin content ([2]; HQ 1% w/v with enhancer 2% v/v, finite dose solution 5 microL/cm^2): 38.2 ± 3.1 μg/cm^2 | Enhancement ratio (enhancer/control) ([2]; HQ 1% w/v with enhancer 2% v/v versus HQ 1% w/v control): 1.5 | Enhancement ratio (enhancer/control) ([7]; both, guinea pig, 3 % v/v): 2.9 | median amount of ibuprofen penetrated after 12 hours [3]: 1123* μg/cm^2 | median amount of ibuprofen penetrated after 24 hours [3]: 2981* μg/cm^2 | Enhancement ratio ([9]; 1.6 % v/v): 1.2 | Mean flux +/− std error of indomethacin ([9]; 1.6 % v/v): 1.43 +/− 0.14 microg.cm^2.h | Enhancement ratio ([9]; 3.2 % v/v): 1.4 | Mean flux +/− std error of indomethacin ([9]; 3.2 % v/v): 1.71 +/− 0.32 microg.cm^2.h | Enhancement ratio ([9]; 6.4 % v/v): 1.6 | Mean flux +/− std error of indomethacin ([9]; 6.4 % v/v): 1.94 +/− 0.09 microg.cm^2.h | Mean flux +/− std error of oestradiol ([4]; Children's python, 8 % v/v): 0.26 +/− 0.01 microg/cm^2 · h | Enhancement ratio ([4]; Children's python, 8 % v/v): 2.4 | Enhancement ratio [10, 14]: 5.8 | Mean flux +/− std error of hydrocortisone [10, 14]: 0.79 +/− 0.06 microg/cm^2.h | Mean flux +/− std error of flurbiprofen ([5]; 8 % v/v): 2.91 +/− 0.30 microg/cm^2 · h | Mean flux +/− std error of ibuprofen ([5]; 8 % v/v): 13.16 +/− 1.21 microg/cm^2 · h | Mean flux +/− std error of norethisterone acetate ([5]; 8 % v/v): 1.85 +/− 0.07 microg/cm^2 · h | Mean flux +/− std error of progesterone ([5]; 24 h, 8 % v/v): 0.95 +/− 0.03 microg/cm^2 · h

SMILES: C[C@]12CC[C@@H]3c4ccc(O)cc4CC[C@H]3[C@@H]1CC[C@@H]2O [Oestradiol, oestradiol]
Mean flux +/− std error of oestradiol ([4]; control without penetration enhancer, 2% w/v oestradiol): 0.06 +/− 0.01 microg/cm^2 · h

SMILES: CCCCC(CC)COC(=O)C=Cc1ccc(OC)cc1 (stereo not drawn) [PARSOL ® MCX]
Flux of hydroquinone ([7]; HQ gel 15 mg/cm^2 with enhancer (PARSOL MCX 3% v/v, ESCALOL 507 3% v/v, AZONE 5% v/v as in row)): 0.93 ± 0.19 % dose/h | Enhancement ratio (enhancer/control) ([7]; hydroquinone flux from gel, guinea pig skin in vitro): 2.7

SMILES: CC(=O)[C@H]1CC[C@H]2[C@@H]3CCC4=CC(=O)CC[C@]4(C)[C@H]3CC[C@]12C [Progesterone, progesterone]
Mean flux +/− std error of progesterone ([5]; 24 h, 6 % w/v): 0.40 +/− 0.02 microg/cm^2 · h

SMILES: C[C@]12CCC(=O)C=C1CC[C@@H]1[C@@H]2[C@@H](O)C[C@@]2(C)[C@H]1CC[C@]2(O)C(=O)CO [hydrocortisone]
Mean flux +/− std error of hydrocortisone ([10]; control, no enhancer, 1% w/v hydrocortisone in 70% aqueous ethanol): 0.14 +/− 0.04 microg/cm^2.h

SMILES: CC(C(=O)O)c1cccc(C(=O)c2ccccc2)c1 (stereo not drawn) [ketoprofen]
Mean flux +/− std error of ketoprofen [11]: 0.96 ± 0.18 microg/cm^2.h | Mean flux +/− std error of ketoprofen [12]: 0.78 ± 0.07 microg/cm^2.h | Mean flux +/− std error of ketoprofen [13]: 0.47 ± 0.04 microg/cm^2.h

Further lines, with some results ahead:

octanol-water partition coefficient, fold lower than those of the present invention [6]: more than 8000 fold
SMILES: CCOC(=O)c1ccc(N)cc1 [Benzocaine, 2 carbon fatty acid ester of para-aminobenzoic acid]

Mean flux +/− std error of flurbiprofen ([5]; 20 %): 0.81 +/− 0.05 microg/cm^2 · h
SMILES: CC(C(=O)O)c1ccc(-c2ccccc2)c(F)c1 (stereo not drawn) [Flurbiprofen, flurbiprofen]

Flux of hydroquinone ([7]; control gel, no enhancer, 15 mg/cm^2): 0.35 ± 0.10 % dose/h
SMILES: Oc1ccc(O)cc1 [HQ, hydroquinone]
Melanin content ([2]; HQ 1% w/v control, no enhancer, 5 microL/cm^2): 57.5 ± 3.7 μg/cm^2 | Melanin content ([2]; HQ 2% w/v control, no enhancer, 5 microL/cm^2): 36.8 ± 8.1 μg/cm^2

median amount of ibuprofen penetrated after 12 hours [8]: 474 μg/cm^2 | median amount of ibuprofen penetrated after 24 hours [8]: 1819 μg/cm^2 | Mean flux +/− std error of ibuprofen ([5]; 20 %): 5.39 +/− 0.50 microg/cm^2 · h
SMILES: CC(C)Cc1ccc(C(C)C(=O)O)cc1 (stereo not drawn) [Ibuprofen, ibuprofen]
